Where two headings read alike, the source gives them in different places.
Legend:
[1] = tested on: Aβ40 in conditioned medium of cells stably expressing Amyloid Precursor Protein (APP); assay: In vitro BACE cell-based assay (Aβ40 in conditioned medium, sandwich ELISA); settings: Homo sapiens;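 further: compounds added as a dilution series, secreted peptide quantified by europium time-resolved fluorescence readout, potency fitted from percent of control versus compound concentration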
[2] = biological target: Beta Secretase enzyme (BACE) (Homo sapiens, UniProt P56817); assay: In vitro enzymatic BACE FRET (fluorescence resonance energy transfer) assay; format: biochemical;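 further: fluorescence read after 1 h with 50 nM quenched peptide substrate spanning the BACE cleavage site, in pH 4.2 acetate buffer containing 10% DMSO and nonionic detergent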
[3] = HEK293, HEK cells, cell-based assay, read-out: HEK cell assay (IC50)
[4] = BACE enzyme FRET assay, read-out: BACE1 FRET assay (IC50)
[5] = HEK293, Table 1, HEK cells, read-out: HEK cell assay
[6] = Table 1, read-out: BACE1 FRET assay

Beta Secretase enzyme (BACE), sequence (P56817 46-501): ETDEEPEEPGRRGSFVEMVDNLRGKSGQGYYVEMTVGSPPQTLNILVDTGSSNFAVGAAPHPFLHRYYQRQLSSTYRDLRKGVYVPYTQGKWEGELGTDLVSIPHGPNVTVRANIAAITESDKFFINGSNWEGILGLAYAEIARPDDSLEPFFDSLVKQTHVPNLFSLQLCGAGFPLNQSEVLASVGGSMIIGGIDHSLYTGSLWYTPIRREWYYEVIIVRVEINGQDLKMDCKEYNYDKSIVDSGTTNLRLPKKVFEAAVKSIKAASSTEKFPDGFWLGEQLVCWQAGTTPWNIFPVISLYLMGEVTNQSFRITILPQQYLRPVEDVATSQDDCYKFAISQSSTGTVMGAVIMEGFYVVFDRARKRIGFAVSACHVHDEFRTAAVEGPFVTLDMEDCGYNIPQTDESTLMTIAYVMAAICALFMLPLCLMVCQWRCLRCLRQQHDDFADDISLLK

| IC50 [1, 3] | IC50 [2, 4] | IC50 [1, 5] | IC50 [2, 6] | SMILES |
| --- | --- | --- | --- | --- |
| 14.7 nM | 15.1 nM | – | – | CC(=O)N[C@@H](Cc1ccccc1)[C@H](O)CN[C@H]1CC2(CCC2)Oc2ncc(CC(C)(F)F)cc21 [compound 272] |
| 26.5 nM | 14.9 nM | – | – | COCC(=O)N[C@@H](Cc1ccccc1)[C@H](O)CN[C@H]1CC2(CCC2)Oc2ncc(CC(C)(F)F)cc21 [compound 273] |
| 72.7 nM | 29.7 nM | – | – | CC(=O)N[C@@H](Cc1ccc(F)cc1)[C@H](O)CN[C@H]1CC2(CCC2)Oc2ncc(CC(C)(F)F)cc21 [compound 274] |
| 63.8 nM | 82 nM | – | – | CC(=O)N[C@@H](Cc1ccc2c(c1)OCO2)[C@H](O)CN[C@H]1CC2(CCC2)Oc2ncc(CC(C)(F)F)cc21 [compound 275] |
| 87.2 nM | 76 nM | – | – | COCC(=O)N[C@@H](Cc1ccc2c(c1)OCO2)[C@H](O)CN[C@H]1CC2(CCC2)Oc2ncc(CC(C)(F)F)cc21 [compound 276] |
| 9.36 nM | 6.13 nM | – | – | CC(=O)N[C@@H](Cc1cccc(F)c1)[C@H](O)CN[C@H]1CC2(CCC2)Oc2ncc(CC(C)(F)F)cc21 [compound 277] |
| 8.22 nM | 6.76 nM | – | – | COCC(=O)N[C@@H](Cc1cccc(F)c1)[C@H](O)CN[C@H]1CC2(CCC2)Oc2ncc(CC(C)(F)F)cc21 [compound 278] |
| 108 nM | 126 nM | – | – | CO[C@H](C)C(=O)N[C@@H](Cc1ccc2c(c1)OCO2)[C@H](O)CN[C@H]1CC2(CCC2)Oc2ncc(CC(C)(F)F)cc21 [compound 279] |
| 175 nM | 18.9 nM | – | – | COCC(=O)N[C@@H](Cc1cccc(F)c1)[C@H](O)CN[C@H]1CC2(CC(F)(F)C2)Oc2ncc(CC(C)(F)F)cc21 [compound 280] |
| 59.7 nM | 11.2 nM | – | – | CC(=O)N[C@@H](Cc1ccc2c(c1)OCO2)[C@H](O)CN[C@H]1CC2(CCC2)Oc2ccc(CC(C)(C)C)cc21 [compound 281] |
| 16.8 nM | 6.13 nM | – | – | COCC(=O)N[C@@H](Cc1ccc2c(c1)OCO2)[C@H](O)CN[C@H]1CC2(CCC2)Oc2ncc(CC(C)(C)C)cc21 [compound 282] |
| 4.77 nM | 2.65 nM | – | – | COCC(=O)N[C@@H](Cc1cccc(F)c1)[C@H](O)CN[C@H]1CC2(CCC2)Oc2ncc(CC(C)(C)F)cc21 [compound 284] |
| 73.8 nM | 57 nM | – | – | COCC(=O)N[C@@H](Cc1ccc2c(c1)OCO2)[C@H](O)CN[C@H]1CC2(CCC2)Oc2ncc(CC(C)(C)F)cc21 [compound 285] |
| 5.99 nM | 3.32 nM | – | – | COCC(=O)N[C@@H](Cc1cc(F)cc(F)c1)[C@H](O)CN[C@H]1CC2(CCC2)Oc2ncc(CC(C)(C)F)cc21 [compound 286] |
| 455 nM | 53.9 nM | – | – | CC(C)(C)Cc1cnc2c(c1)[C@@H](NC[C@@H](O)[C@H](Cc1ccc3c(c1)OCO3)NC(=O)C(F)(F)F)CC1(CCC1)O2 [compound 288] |
| 196 nM | 77.5 nM | – | – | COC(=O)N[C@@H](Cc1ccc2c(c1)OCO2)[C@H](O)CN[C@H]1CC2(CCC2)Oc2ncc(CC(C)(C)C)cc21 [compound 289] |
| 54.9 nM | 23.1 nM | – | – | COCC(=O)N[C@@H](Cc1ccc2c(c1)OCO2)[C@H](O)CN[C@H]1CC2(CCC2)Oc2ccc(CC(C)(C)C)cc21 [compound 290] |
| 382 nM | 41.4 nM | – | – | COCC(=O)N[C@@H](Cc1ccc2c(c1)OC(F)(F)O2)[C@H](O)CN[C@H]1CC2(CCC2)Oc2ncc(CC(C)(C)C)cc21 [compound 291] |
| 159 nM | 32.5 nM | – | – | CC(=O)N[C@@H](Cc1ccc2c(c1)OC(F)(F)O2)[C@H](O)CN[C@H]1CC2(CCC2)Oc2ncc(CC(C)(C)C)cc21 [compound 292] |
| 333 nM | 484 nM | – | – | COCC(=O)N[C@@H](Cc1ccc2c(c1)OC(C)(C)O2)[C@H](O)CN[C@H]1CC2(CCC2)Oc2ncc(CC(C)(C)C)cc21 [compound 293] |
| 1330 nM | 96.9 nM | – | – | CO[C@H](C)C(=O)N[C@@H](Cc1ccc2c(c1)OC(F)(F)O2)[C@H](O)CN[C@H]1CC2(CCC2)Oc2ncc(CC(C)(C)C)cc21 [compound 295] |
| 575 nM | 102 nM | – | – | CO[C@@H](C)C(=O)N[C@@H](Cc1ccc2c(c1)OC(F)(F)O2)[C@H](O)CN[C@H]1CC2(CCC2)Oc2ncc(CC(C)(C)C)cc21 [compound 296] |
| 137 nM | 57.1 nM | – | – | COC(C)C(=O)NC(Cc1cc(F)c2c(c1)OCO2)C(O)CNC1CC2(CCC2)Oc2ncc(CC(C)(C)C)cc21 (stereo not shown) [compound 300] |
| 6.99 nM | 7.81 nM | – | – | CO[C@H](C)C(=O)N[C@@H](Cc1cccc(F)c1)[C@H](O)CN[C@H]1CC2(CCC2)Oc2ncc(CC(C)(C)F)cc21 [compound 301] |
| 11.5 nM | 5.73 nM | – | – | COCC(=O)N[C@@H](Cc1cc(F)c2c(c1)OCO2)[C@H](O)CN[C@H]1CC2(CCC2)Oc2ncc(CC(C)(C)C)cc21 [compound 302] |

| IC50 [1, 3] | IC50 [2, 4] | IC50 [1, 5] | IC50 [2, 6] | SMILES |
| --- | --- | --- | --- | --- |
| 21.4 nM | 9.01 nM | – | – | CO[C@H](C)C(=O)N[C@@H](Cc1cc(F)c2c(c1)OCO2)[C@H](O)CN[C@H]1CC2(CCC2)Oc2ncc(CC(C)(C)C)cc21 [compound 303] |
| 88.2 nM | 37.6 nM | – | – | CO[C@@H](C)C(=O)N[C@@H](Cc1cc(F)c2c(c1)OCO2)[C@H](O)CN[C@H]1CC2(CCC2)Oc2ncc(CC(C)(C)C)cc21 [compound 304] |
| 58 nM | 37.9 nM | – | – | CC(=O)N[C@@H](Cc1cc(F)c2c(c1)OCO2)[C@@H](O)CN[C@H]1CC2(CCC2)Oc2ncc(CC(C)(C)C)cc21 [compound 305, N-((1S,2S)-3-(((4′S)-6′-(2,2-dimethylpropyl)-3′,4′-dihydrospiro[cyclobutane-1,2′-pyrano[2,3-b]pyridin]-4′-yl)amino)-1-((7-fluoro-1,3-benzodioxol-5-yl)methyl)-2-hydroxypropyl)acetamide] |
| 7.47 nM | 4.28 nM | – | – | CC(=O)N[C@@H](Cc1cc(F)c2c(c1)OCO2)[C@H](O)CN[C@H]1CC2(CCC2)Oc2ncc(CC(C)(C)C)cc21 [compound 306] |
| 68.3 nM | 31.3 nM | – | – | CC(=O)C(=O)N[C@@H](Cc1ccc2c(c1)OCO2)[C@H](O)CN[C@H]1CC2(CCC2)Oc2ncc(CC(C)(C)C)cc21 [compound 307] |
| 20.9 nM | 24.4 nM | – | – | CC(=O)CC(=O)N[C@@H](Cc1ccc2c(c1)OCO2)[C@H](O)CN[C@H]1CC2(CCC2)Oc2ncc(CC(C)(C)C)cc21 [compound 308] |
| 40 nM | 20.6 nM | – | – | CC(C)(C)Cc1cnc2c(c1)[C@@H](NC[C@@H](O)[C@H](Cc1ccc3c(c1)OCO3)NC(=O)CCl)CC1(CCC1)O2 [compound 309] |
| 166 nM | 50.5 nM | – | – | CC(=O)N[C@@H](Cc1ccc(F)cc1)[C@H](O)CN[C@H]1CC2(CCC2)Oc2ncc(CC3(C(F)(F)F)CC3)cc21 [compound 310] |
| 307 nM | 51.5 nM | – | – | COCC(=O)N[C@@H](Cc1ccc(F)cc1)[C@H](O)CN[C@H]1CC2(CCC2)Oc2ncc(CC3(C(F)(F)F)CC3)cc21 [compound 311] |
| 197 nM | 61.7 nM | – | – | CC(=O)N[C@@H](Cc1ccc2c(c1)OCO2)[C@H](O)CN[C@H]1CC2(CCC2)Oc2ncc(CC3(C(F)(F)F)CC3)cc21 [compound 312] |
| 327 nM | 151 nM | – | – | COCC(=O)N[C@@H](Cc1ccc2c(c1)OCO2)[C@H](O)CN[C@H]1CC2(CCC2)Oc2ncc(CC3(C(F)(F)F)CC3)cc21 [compound 313] |
| 11.3 nM | 4.19 nM | – | – | CC(=O)N[C@@H](Cc1cccc(F)c1)[C@H](O)CN[C@H]1CC2(CCC2)Oc2ncc(C[C@H](C)C(F)(F)F)cc21 [compound 314] |
| – | – | 9.43 nM | 6.11 nM | CC(=O)N[C@@H](Cc1cccc(F)c1)[C@H](O)CN[C@H]1CC2(CCC2)Oc2ncc(C[C@@H](C)C(F)(F)F)cc21 [compound 315] |
| – | – | 49.7 nM | 13.6 nM | CC(=O)N[C@@H](Cc1ccccc1)[C@H](O)CN[C@H]1CC2(CCC2)Oc2ncc(C[C@H](C)C(F)(F)F)cc21 [compound 316] |
| – | – | 27.8 nM | 19.7 nM | CC(=O)N[C@@H](Cc1ccccc1)[C@H](O)CN[C@H]1CC2(CCC2)Oc2ncc(C[C@@H](C)C(F)(F)F)cc21 [compound 317] |
| – | – | 85 nM | 34.7 nM | CC(=O)N[C@@H](Cc1ccccc1)[C@H](O)CN[C@H]1CC2(CCC2)Oc2ncc(CC3(C(F)(F)F)CC3)cc21 [compound 318] |
| – | – | 309 nM | 55.8 nM | COCC(=O)N[C@@H](Cc1ccccc1)[C@H](O)CN[C@H]1CC2(CCC2)Oc2ncc(CC3(C(F)(F)F)CC3)cc21 [compound 319] |
| – | – | 120 nM | 155 nM | CC(=O)N[C@@H](Cc1ccc2c(c1)OCO2)[C@H](O)CN[C@H]1CC2(CCC2)Oc2ncc(C[C@H](C)C(F)(F)F)cc21 [compound 320] |
| – | – | 64.6 nM | 134 nM | CC(=O)N[C@@H](Cc1ccc2c(c1)OCO2)[C@H](O)CN[C@H]1CC2(CCC2)Oc2ncc(C[C@@H](C)C(F)(F)F)cc21 [compound 321] |
| – | – | 39.9 nM | 10.9 nM | CC(=O)N[C@@H](Cc1cccc(F)c1)[C@H](O)CN[C@H]1CC2(CCC2)Oc2ncc([C@H](F)[C@H](C)C(F)(F)F)cc21 [compound 322] |
| – | – | 13.7 nM | 3.71 nM | COCC(=O)N[C@@H](Cc1cccc(F)c1)[C@H](O)CN[C@H]1CC2(CCC2)Oc2ncc(C[C@H](C)C(F)(F)F)cc21 [compound 325] |
| – | – | 27.1 nM | 7.77 nM | COCC(=O)N[C@@H](Cc1cccc(F)c1)[C@H](O)CN[C@H]1CC2(CCC2)Oc2ncc(C[C@@H](C)C(F)(F)F)cc21 [compound 326] |
| – | – | 60.4 nM | 9.85 nM | COCC(=O)N[C@@H](Cc1cccc(F)c1)[C@H](O)CN[C@H]1CC2(CCC2)Oc2ncc(CC3(C(F)(F)F)CC3)cc21 [compound 327] |
| – | – | 23 nM | 9.19 nM | COCC(=O)N[C@@H](Cc1ccccc1)[C@H](O)CN[C@H]1CC2(CCC2)Oc2ncc(CC(C)C)cc21 [compound 328] |

| SMILES | IC50 [1, 3] | IC50 [2, 4] | IC50 [1, 5] | IC50 [2, 6] |
| --- | --- | --- | --- | --- |
| CC(C)(C)Cc1cnc2c(c1)[C@@H](NC[C@@H](O)[C@H](Cc1ccc3c(c1)OCO3)NC(=O)CF)CC1(CCC1)O2 [compound 283] | 19 nM | 7.51 nM | – | – |

Source: US8163909B2, “Substituted hydroxyethyl amine compounds as beta-secretase modulators and methods of use” (Amgen Inc., priority 2007, dated 2012)
